In ChEMBL document CHEMBL4665665, “4-Aryl Pyrrolidines as Novel Orally Efficacious Antimalarial Agents. Part 2: 2-Aryl-N-(4-arylpyrrolidin-3-yl)acetamides” (ACS Med Chem Lett, 2019):
Calls of active or inactive are those of the source. The calls are words filed in the database; no cut-off is given here.

Key:
[1] = test system: Plasmodium falciparum; assay: Antimalarial activity against CQ-sensitive Plasmodium falciparum 3D7 incubated for 72 hrs by SYBR Green-1 dye based fluorescence assay; type: functional, organism-based; settings: Plasmodium falciparum, 3D7, 72 h
[2] = Half life in KM mouse at 2 mg/kg, iv administered as cassette dosing measured up to 24 hrs by LC/MS analysis; type: ADME, organism-based; settings: in vivo
[3] = test system: Plasmodium chabaudi; assay: Antimalarial activity against Plasmodium chabaudi ASS infected in NIH mouse assessed as inhibition of parasitemia at 10 mg/kg, po qd for 4 days starting from 4 hrs post-parasite inoculation and measured at 24 hrs after last-drug treatment by Peter's 4-day suppressive test relative to control; type: functional; settings: 96 h
[4] = Apparent clearance in KM mouse at 2 mg/kg, iv administered as cassette dosing measured up to 24 hrs by LC/MS analysis; type: ADME, organism-based; settings: in vivo
[5] = test system: hERG; assay: Selectivity ratio of IC50 for human ERG incubated for 2 hrs by fluorescence polarization assay to IC50 for CQ-sensitive Plasmodium falciparum 3D7 incubated for 72 hrs by SYBR Green-1 dye based fluorescence assay; type: toxicity; settings: read-out: Ratio IC50
[6] = biological target: Voltage-gated inwardly rectifying potassium channel KCNH2 (Homo sapiens, UniProt Q12809); assay: Displacement of Tracer Red from human ERG incubated for 2 hrs by fluorescence polarization assay
Sequence of Voltage-gated inwardly rectifying potassium channel KCNH2 (Q12809 whole entry): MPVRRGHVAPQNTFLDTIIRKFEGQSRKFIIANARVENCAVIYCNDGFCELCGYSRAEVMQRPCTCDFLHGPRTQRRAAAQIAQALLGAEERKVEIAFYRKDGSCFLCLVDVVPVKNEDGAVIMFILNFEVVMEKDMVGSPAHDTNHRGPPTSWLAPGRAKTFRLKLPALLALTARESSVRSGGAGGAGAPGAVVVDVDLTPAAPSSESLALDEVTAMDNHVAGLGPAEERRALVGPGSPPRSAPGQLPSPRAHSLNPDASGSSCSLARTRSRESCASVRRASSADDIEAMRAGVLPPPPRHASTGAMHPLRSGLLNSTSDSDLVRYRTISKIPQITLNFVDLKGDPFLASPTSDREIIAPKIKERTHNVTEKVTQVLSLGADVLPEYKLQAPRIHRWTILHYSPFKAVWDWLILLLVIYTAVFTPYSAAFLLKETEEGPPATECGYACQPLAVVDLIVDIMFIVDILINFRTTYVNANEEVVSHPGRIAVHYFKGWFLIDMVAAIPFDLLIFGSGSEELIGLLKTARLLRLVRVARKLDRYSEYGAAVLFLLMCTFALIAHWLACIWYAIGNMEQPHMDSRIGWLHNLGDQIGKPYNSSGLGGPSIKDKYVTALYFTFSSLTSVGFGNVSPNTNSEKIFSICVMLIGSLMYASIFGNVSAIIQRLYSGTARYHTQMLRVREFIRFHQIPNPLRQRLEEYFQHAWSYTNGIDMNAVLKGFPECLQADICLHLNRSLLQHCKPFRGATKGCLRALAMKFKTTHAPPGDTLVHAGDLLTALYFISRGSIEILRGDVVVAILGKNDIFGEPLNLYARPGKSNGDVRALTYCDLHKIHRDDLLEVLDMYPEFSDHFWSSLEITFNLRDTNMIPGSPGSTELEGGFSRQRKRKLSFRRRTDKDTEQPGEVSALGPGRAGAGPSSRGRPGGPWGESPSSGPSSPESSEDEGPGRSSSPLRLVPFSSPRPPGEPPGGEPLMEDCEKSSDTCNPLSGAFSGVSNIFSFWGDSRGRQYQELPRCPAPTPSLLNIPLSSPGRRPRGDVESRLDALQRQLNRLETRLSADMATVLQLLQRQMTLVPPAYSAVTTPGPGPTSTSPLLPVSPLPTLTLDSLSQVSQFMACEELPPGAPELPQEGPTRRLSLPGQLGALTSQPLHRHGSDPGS

[7] = test system: Plasmodium falciparum; assay: Antimalarial activity against multidrug resistant Plasmodium falciparum Dd2 incubated for 72 hrs by SYBR Green-1 dye based fluorescence assay; type: functional, organism-based; settings: Dd2, 72 h
[8] = biological target: Cytochrome P450 2C19 (Homo sapiens, UniProt P33261); assay: Inhibition of recombinant human CYP2C19 expressed in baculovirus infected insect cells using s-mephenytoin as substrate incubated for 30 mins in presence of NADPH-regenerating system by fluorescence based assay; type: ADME
Sequence of Cytochrome P450 2C19 (P33261 whole entry): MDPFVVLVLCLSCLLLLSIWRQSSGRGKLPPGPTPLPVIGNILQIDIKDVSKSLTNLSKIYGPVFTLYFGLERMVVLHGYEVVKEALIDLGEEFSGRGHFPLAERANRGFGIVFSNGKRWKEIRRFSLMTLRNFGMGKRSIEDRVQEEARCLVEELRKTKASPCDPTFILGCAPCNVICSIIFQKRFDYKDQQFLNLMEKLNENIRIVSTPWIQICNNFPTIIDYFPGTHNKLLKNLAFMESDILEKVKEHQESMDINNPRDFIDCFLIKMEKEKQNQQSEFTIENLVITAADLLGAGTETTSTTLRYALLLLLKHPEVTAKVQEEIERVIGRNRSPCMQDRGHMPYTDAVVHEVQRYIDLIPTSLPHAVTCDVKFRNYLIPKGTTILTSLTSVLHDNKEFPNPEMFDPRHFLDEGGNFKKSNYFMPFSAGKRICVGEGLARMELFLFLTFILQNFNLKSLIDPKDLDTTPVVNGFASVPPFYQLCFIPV

[9] = biological target: Cytochrome P450 3A4 (Homo sapiens, UniProt P08684); assay: Inhibition of recombinant human CYP3A4 expressed in baculovirus infected insect cells using midazolam as substrate incubated for 30 mins in presence of NADPH-regenerating system by fluorescence based assay; type: ADME
Sequence of Cytochrome P450 3A4 (P08684 whole entry): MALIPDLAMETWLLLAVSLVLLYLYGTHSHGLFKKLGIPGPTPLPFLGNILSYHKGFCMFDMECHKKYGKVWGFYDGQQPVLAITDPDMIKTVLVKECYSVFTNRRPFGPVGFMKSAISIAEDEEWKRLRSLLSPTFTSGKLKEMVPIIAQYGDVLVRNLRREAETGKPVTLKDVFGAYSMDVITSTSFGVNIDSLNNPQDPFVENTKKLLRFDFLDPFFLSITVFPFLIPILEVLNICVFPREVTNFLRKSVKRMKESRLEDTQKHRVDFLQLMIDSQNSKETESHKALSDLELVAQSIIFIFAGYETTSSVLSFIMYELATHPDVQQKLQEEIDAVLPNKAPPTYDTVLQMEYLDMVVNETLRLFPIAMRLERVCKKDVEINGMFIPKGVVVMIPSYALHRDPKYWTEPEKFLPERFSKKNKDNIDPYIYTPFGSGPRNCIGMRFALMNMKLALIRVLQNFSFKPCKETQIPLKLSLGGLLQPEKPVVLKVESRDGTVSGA

[10] = (§1) Plasma concentration in NIH mouse infected with Plasmodium chabaudi ASS at 10 mg/kg, po qd for 4 days starting from 4 hrs post-parasite inoculation and measured at 24 hrs post-dosing on day 4 by LC/MS analysis; type: ADME, organism-based; settings: dose 10 mg/kg/day, time 4 day
[11] = Plasma concentration in NIH mouse infected with Plasmodium chabaudi ASS at 10 mg/kg, po qd for 4 days starting from 4 hrs post-parasite inoculation and measured at 6 hrs post-dosing on day 4 by LC/MS analysis; type: ADME, organism-based; settings: dose 10 mg/kg/day, time 4 day
[12] = test system: HepG2; assay: Cytotoxicity against human HepG2 cells assessed as cell viability at 5 uM incubated for 72 hrs by PrestoBlue cell viability reagent based assay; settings: hepg2, 72 h
[13] = biological target: Cytochrome P450 2D6 (Homo sapiens, UniProt P10635); assay: Inhibition of recombinant human CYP2D6 expressed in baculovirus infected insect cells using dextromethorphan as substrate incubated for 30 mins in presence of NADPH-regenerating system by fluorescence based assay; type: ADME
Sequence of Cytochrome P450 2D6 (P10635 whole entry): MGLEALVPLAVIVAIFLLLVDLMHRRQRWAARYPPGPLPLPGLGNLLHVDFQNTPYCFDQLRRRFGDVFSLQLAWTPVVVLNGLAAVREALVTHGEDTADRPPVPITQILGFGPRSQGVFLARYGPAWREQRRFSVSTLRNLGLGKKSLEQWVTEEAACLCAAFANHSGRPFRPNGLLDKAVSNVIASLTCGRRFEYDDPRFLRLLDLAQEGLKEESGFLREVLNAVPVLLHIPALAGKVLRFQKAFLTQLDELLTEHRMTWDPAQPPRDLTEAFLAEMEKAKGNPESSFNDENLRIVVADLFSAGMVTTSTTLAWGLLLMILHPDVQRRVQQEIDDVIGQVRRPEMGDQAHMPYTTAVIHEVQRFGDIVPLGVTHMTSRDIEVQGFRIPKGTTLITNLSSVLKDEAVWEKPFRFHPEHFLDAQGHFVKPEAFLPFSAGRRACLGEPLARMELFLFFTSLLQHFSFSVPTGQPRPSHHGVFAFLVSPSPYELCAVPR

[14] = biological target: Beta-secretase 1 (Homo sapiens) (UniProt P56817); assay: Inhibition of recombinant human BACE1 using Mca-SEVNLDAEFRK(Dnp)RR-NH2 fluorogenic peptide as substrate incubated for 60 mis by fluorescence based assay; settings: time 60.0 min
Sequence of Beta-secretase 1 (Homo sapiens) (P56817 whole entry): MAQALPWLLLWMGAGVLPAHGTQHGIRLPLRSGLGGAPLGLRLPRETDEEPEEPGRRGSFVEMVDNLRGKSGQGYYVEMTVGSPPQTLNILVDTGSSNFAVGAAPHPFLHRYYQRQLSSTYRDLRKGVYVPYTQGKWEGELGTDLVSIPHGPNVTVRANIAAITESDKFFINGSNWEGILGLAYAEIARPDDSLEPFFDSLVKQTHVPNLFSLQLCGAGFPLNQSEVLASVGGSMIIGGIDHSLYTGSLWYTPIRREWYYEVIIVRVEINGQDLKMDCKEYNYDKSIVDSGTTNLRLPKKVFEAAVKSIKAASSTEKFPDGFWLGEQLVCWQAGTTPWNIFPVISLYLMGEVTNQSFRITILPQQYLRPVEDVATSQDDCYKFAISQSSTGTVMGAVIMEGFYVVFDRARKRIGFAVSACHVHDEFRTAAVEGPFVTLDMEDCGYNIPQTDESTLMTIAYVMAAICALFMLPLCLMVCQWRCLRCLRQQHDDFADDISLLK

[15] = biological target: T1, Cytochrome P450 1A2 (Homo sapiens, UniProt P05177); assay: Inhibition of recombinant human CYP1A2 expressed in baculovirus infected insect cells using phenacetin as substrate incubated for 30 mins in presence of NADPH-regenerating system by fluorescence based assay; type: ADME
T1 sequence (P05177 whole entry): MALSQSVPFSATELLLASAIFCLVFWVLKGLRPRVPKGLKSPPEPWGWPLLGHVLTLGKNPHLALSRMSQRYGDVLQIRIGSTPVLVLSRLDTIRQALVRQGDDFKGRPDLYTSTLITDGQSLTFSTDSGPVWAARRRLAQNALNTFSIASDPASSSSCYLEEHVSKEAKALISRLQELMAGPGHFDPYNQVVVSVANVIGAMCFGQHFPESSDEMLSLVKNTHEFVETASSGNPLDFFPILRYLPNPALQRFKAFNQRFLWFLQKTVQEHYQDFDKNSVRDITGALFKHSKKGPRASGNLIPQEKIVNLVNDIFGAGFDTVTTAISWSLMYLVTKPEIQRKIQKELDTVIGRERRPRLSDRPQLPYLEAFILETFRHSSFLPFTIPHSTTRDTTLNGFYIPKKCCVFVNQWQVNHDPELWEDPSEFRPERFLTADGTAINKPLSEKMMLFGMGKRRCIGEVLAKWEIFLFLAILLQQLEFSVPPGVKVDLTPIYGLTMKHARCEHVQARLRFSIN

[16] = Apparent volume of distribution in KM mouse at 2 mg/kg, iv administered as cassette dosing measured up to 24 hrs by LC/MS analysis; type: ADME, organism-based; settings: in vivo, read-out: Vz
[17] = biological target: Cytochrome P450 2C9 (Homo sapiens, UniProt P11712); assay: Inhibition of recombinant human CYP2C9 expressed in baculovirus infected insect cells using tolbutamide as substrate incubated for 30 mins in presence of NADPH-regenerating system by fluorescence based assay; type: ADME
Sequence of Cytochrome P450 2C9 (P11712 whole entry): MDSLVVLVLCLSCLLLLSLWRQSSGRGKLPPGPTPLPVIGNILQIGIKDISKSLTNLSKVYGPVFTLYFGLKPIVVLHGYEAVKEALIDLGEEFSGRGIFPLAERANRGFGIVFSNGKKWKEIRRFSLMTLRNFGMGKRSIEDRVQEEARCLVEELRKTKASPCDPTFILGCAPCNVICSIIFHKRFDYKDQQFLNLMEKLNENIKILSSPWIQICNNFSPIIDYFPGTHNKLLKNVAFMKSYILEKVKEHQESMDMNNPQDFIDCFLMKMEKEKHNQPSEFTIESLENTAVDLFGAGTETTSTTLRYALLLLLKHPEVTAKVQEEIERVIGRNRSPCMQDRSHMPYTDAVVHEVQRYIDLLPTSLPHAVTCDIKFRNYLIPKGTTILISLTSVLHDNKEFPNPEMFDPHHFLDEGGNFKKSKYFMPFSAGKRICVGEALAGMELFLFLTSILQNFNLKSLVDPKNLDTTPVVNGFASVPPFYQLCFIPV

[18] = biological target: Plasmepsin II (Plasmodium falciparum) (UniProt P46925); assay: Inhibition of Plasmodium falciparum plasmepsin 2 using PM-2 peptide substrate incubated for 60 mis by fluorescence based assay; settings: time 60.0 min
Sequence of Plasmepsin II (Plasmodium falciparum) (P46925 125-453 limits assumed): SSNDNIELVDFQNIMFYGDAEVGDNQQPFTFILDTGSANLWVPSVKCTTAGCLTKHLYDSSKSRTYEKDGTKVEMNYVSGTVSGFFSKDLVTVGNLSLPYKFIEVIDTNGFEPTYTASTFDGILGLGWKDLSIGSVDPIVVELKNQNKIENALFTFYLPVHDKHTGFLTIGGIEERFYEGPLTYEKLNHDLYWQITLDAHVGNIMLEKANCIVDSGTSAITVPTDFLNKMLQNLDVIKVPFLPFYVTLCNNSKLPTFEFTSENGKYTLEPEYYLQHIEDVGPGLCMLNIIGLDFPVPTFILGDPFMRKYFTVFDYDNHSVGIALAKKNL

[19] = Plasma concentration in NIH mouse infected with Plasmodium chabaudi ASS at 10 mg/kg, po qd for 4 days starting from 4 hrs post-parasite inoculation and measured at 1 hr post-dosing on day 4 by LC/MS analysis; type: ADME, organism-based; settings: dose 10 mg/kg/day, time 4 day
[20] = as §1, with “Ratio of IC50 for antimalarial activity against CQ-sensitive Plasmodium falciparum 3D7 incubated for 72 hrs by SYBR Green-1 dye based fluorescence assay to Plasma” for “Plasma”
[21] = test system: Plasmodium falciparum; assay: Inhibition of Plasmodium falciparum plasmepsin 4 using PM-2 peptide substrate incubated for 60 mis by fluorescence based assay; settings: time 60.0 min

Row | Compound | IC50 [1] | other results
1 | Cc1cccc(CC(=O)N[C@H]2CNC[C@@H]2c2ccc(C(F)(F)F)cc2)c1 (racemic) | 370 nM | 
2 | CN(C)c1ccc(CC(=O)N[C@@H]2CNC[C@H]2c2cc3ccccc3o2)cc1 | 140 nM | 
3 | CN(C)c1ccc(CC(=O)N[C@@H]2CNC[C@H]2c2ccc(S(F)(F)(F)(F)F)cc2)cc1 | 91 nM | half-life [2]: 7 h; inhibition in vivo at 10 mg/kg/day [3]: 65.3%; clearance [4]: 10.5 mL/min/kg; selectivity ratio at 2 h [5]: 28; IC50 [6]: 2570 nM; IC50 [7]: 89 nM; IC50 [8]: 29400 nM; IC50 [9]: 159 nM; concentration at 96 h [10]: 14.9 nM; concentration at 96 h [11]: 119 nM; Activity [12]: Non-Toxic; IC50 [13]: 90000 nM; inhibition [14]: inactive; IC50 [15]: > 100000 nM; Vd [16]: 6.2 L/kg; IC50 [17]: 36600 nM; inhibition [18]: inactive; concentration at 96 h [19]: 129 nM; Ratio [20]: 6; inhibition [21]: inactive
4 | Cc1ccc(CC(=O)N[C@H]2CNC[C@@H]2c2ccc(C(F)(F)F)cc2)cc1 (racemic) | 230 nM | 
5 | CN(C)c1ccc(CC(=O)N[C@@H]2CNC[C@H]2c2ccc(-c3ccccc3)cc2)cc1 | 4600 nM | 
6 | CN(C)c1ccc(CC(=O)N[C@@H]2CNC[C@H]2c2ccc(C(C)(C)C)cc2)cc1 | 120 nM | 
7 | CN(C)c1ccc(CC(=O)N[C@H]2CNC[C@@H]2c2ccc(C(F)(F)F)nc2)cc1 (racemic) | 210 nM | 
8 | COc1cccc(CC(=O)N[C@H]2CNC[C@@H]2c2ccc(C(F)(F)F)cc2)c1 (racemic) | 760 nM | 
9 | CN(C)c1ccc(CCC(=O)N[C@H]2CNC[C@@H]2c2ccc(C(F)(F)F)cc2)cc1 (racemic) | 1400 nM | 
10 | COc1ccc(CC(=O)N[C@H]2CNC[C@@H]2c2ccc(C(F)(F)F)cc2)cc1 (racemic) | 350 nM | 
11 | CN(C)c1ccc(CNC(=O)[C@H]2CNC[C@@H]2c2ccc(C(F)(F)F)cc2)cc1 (racemic) | 190 nM | 
12 | COc1ccc(CC(=O)N[C@H]2CNC[C@@H]2c2ccc(C(F)(F)F)cc2)nc1 (racemic) | 3600 nM | 
13 | CN(C)c1ccc(CC(=O)N[C@H]2CNC[C@@H]2c2ccc(C(C)(F)F)cc2)cc1 | 440 nM | 
14 | O=C(Cc1ccccc1)N[C@H]1CNC[C@@H]1c1ccc(C(F)(F)F)cc1 (racemic) | 2000 nM | 
15 | CN(C)c1ccc(CC(=O)N[C@@H]2CNC[C@H]2c2cc3cc(F)ccc3o2)cc1 | 270 nM | 
16 | CN(C)c1ccc(CC(=O)N[C@@H]2CNC[C@H]2c2ccc(C(F)(F)C(F)(F)F)nc2)cc1 | 63 nM | 
17 | Cc1ccc(CC(=O)N[C@H]2CNC[C@@H]2c2ccc(C(F)(F)F)cc2)cn1 (racemic) | 3700 nM | 
18 | CN(C)c1ccc(CC(=O)N[C@@H]2CNC[C@H]2c2cc3cc(Cl)ccc3o2)cc1 | 1000 nM | 
19 | CN(C)c1ccc(CC(=O)N[C@@H]2CNC[C@H]2c2ccc(C(F)(F)C(F)(F)F)cc2)cc1 | 140 nM | 
20 | CN1C[C@@H](N(C)C(=O)Cc2ccc(N(C)C)cc2)[C@H](c2ccc(C(F)(F)F)nc2)C1 (racemic) | 1400 nM | 
